Results published in PubChem BioAssay (NCI).
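Briefly, cells in 96-well plates were exposed to five compound concentrations for 48 h, and endpoints were estimated by linear interpolation. The concentration for 50% growth inhibition is given as GI50. TGI is the concentration that stops growth completely.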

Key:
Assay in all cases: NCI-60 cell line screen, 48 h
[1] = test system: SNB-19 CNS
[2] = test system: MOLT-4 leukemia
[3] = test system: MDA-MB-231 breast
[4] = test system: BT-549 breast
[5] = test system: SW-620 colon
[6] = test system: CCRF-CEM leukemia
[7] = test system: A549 NSCLC
[8] = test system: U251 CNS
[9] = test system: M14 melanoma
[10] = test system: OVCAR-3 ovarian
[11] = test system: CAKI-1 renal
[12] = test system: HCT-116 colon
[13] = test system: NCI-H226 lung
[14] = test system: OVCAR-4 ovarian
[15] = test system: T-47D breast
[16] = test system: SNB-75 CNS
[17] = test system: NCI-H23 lung
[18] = test system: 786-0 renal
[19] = test system: IGROV1 ovarian
[20] = test system: SK-OV-3 ovarian
[21] = test system: NCI-H522 lung
[22] = test system: UACC-257 melanoma
[23] = test system: NCI/ADR-RES ovarian
[24] = test system: SN12C renal
[25] = test system: RPMI-8226 leukemia
[26] = test system: UACC-62 melanoma
[27] = test system: UO-31 renal
[28] = test system: RXF 393 renal
[29] = test system: K-562 leukemia
[30] = test system: MALME-3M melanoma
[31] = test system: SR leukemia
[32] = test system: SK-MEL-28 melanoma
[33] = test system: SK-MEL-2 melanoma
[34] = test system: NCI-H460 lung
[35] = test system: SF-268 CNS
[36] = test system: A498 renal
[37] = test system: HS 578T breast
[38] = test system: HCT-15 colon
[39] = test system: OVCAR-5 ovarian
[40] = test system: LOX IMVI melanoma
[41] = test system: MDA-MB-435
[42] = test system: KM12 colon
[43] = test system: HOP-92 NSCLC
[44] = test system: OVCAR-8 ovarian
[45] = test system: SF-539 CNS
[46] = test system: SF-295 CNS
[47] = test system: COLO 205 colon
[48] = test system: PC-3 prostate
[49] = test system: HOP-62 NSCLC
[50] = test system: HCC-2998 colon
[51] = test system: DU-145 prostate
[52] = test system: HL-60(TB) leukemia
[53] = test system: HT29 colon
[54] = test system: ACHN renal
[55] = test system: SK-MEL-5 melanoma
[56] = test system: MCF7 breast
[57] = test system: TK-10 renal

CCCOC(=O)c1ccc2c(c1)[N+](=O)C(C(=O)c1ccccc1)=C(C(F)(F)F)[N+]2=O
GI50 [1]: 1750 nM
TGI [1]: 3220 nM
GI50 [2]: 2050 nM
TGI [2]: 4090 nM
GI50 [3]: 1910 nM
TGI [3]: 3450 nM
GI50 [4]: 1790 nM
TGI [4]: 3270 nM
GI50 [5]: 1840 nM
TGI [5]: 3680 nM
GI50 [6]: 1850 nM
TGI [6]: 3980 nM
GI50 [7]: 1670 nM
TGI [7]: 3330 nM
GI50 [8]: 1760 nM
TGI [8]: 3200 nM
GI50 [9]: 1820 nM
TGI [9]: 3370 nM
GI50 [10]: 1740 nM
TGI [10]: 3170 nM
GI50 [11]: 1780 nM
TGI [11]: 3370 nM
GI50 [12]: 1700 nM
TGI [12]: 3360 nM
GI50 [13]: 2060 nM
TGI [13]: 4690 nM
GI50 [14]: 1740 nM
TGI [14]: 3360 nM
GI50 [15]: 1800 nM
TGI [15]: 3690 nM
GI50 [16]: 1490 nM
TGI [16]: 3000 nM
GI50 [17]: 1780 nM
TGI [17]: 3380 nM
GI50 [18]: 1830 nM
TGI [18]: 3320 nM
GI50 [19]: 1830 nM
TGI [19]: 3610 nM
GI50 [20]: 1890 nM
TGI [20]: 3330 nM
GI50 [21]: 1800 nM
TGI [21]: 3500 nM
GI50 [22]: 1750 nM
TGI [22]: 3220 nM
GI50 [23]: 1890 nM
TGI [23]: 3690 nM
GI50 [24]: 1790 nM
TGI [24]: 3360 nM
GI50 [25]: 1940 nM
TGI [25]: 4110 nM
GI50 [26]: 1760 nM
TGI [26]: 3260 nM
GI50 [27]: 1670 nM
TGI [27]: 3060 nM
GI50 [28]: 1700 nM
TGI [28]: 3250 nM
GI50 [29]: 2100 nM
TGI [29]: 4120 nM
GI50 [30]: 1950 nM
TGI [30]: 3640 nM
GI50 [31]: 1880 nM
TGI [31]: 4850 nM
GI50 [32]: 1850 nM
TGI [32]: 3510 nM
GI50 [33]: 1840 nM
TGI [33]: 3520 nM
GI50 [34]: 2040 nM
TGI [34]: 4280 nM
GI50 [35]: 1780 nM
TGI [35]: 3480 nM
GI50 [36]: 1300 nM
TGI [36]: 2830 nM
GI50 [37]: 2010 nM
TGI [37]: 4530 nM
GI50 [38]: 1630 nM
TGI [38]: 3300 nM
GI50 [39]: 1770 nM
TGI [39]: 3310 nM
GI50 [40]: 1720 nM
TGI [40]: 3350 nM
GI50 [41]: 1710 nM
TGI [41]: 3260 nM
GI50 [42]: 1810 nM
TGI [42]: 3440 nM
GI50 [43]: 1130 nM
TGI [43]: 2430 nM
GI50 [44]: 1840 nM
TGI [44]: 3550 nM
GI50 [45]: 1790 nM
TGI [45]: 3210 nM
GI50 [46]: 1680 nM
TGI [46]: 3210 nM
GI50 [47]: 2090 nM
TGI [47]: 3850 nM
GI50 [48]: 1550 nM
TGI [48]: 2940 nM
GI50 [49]: 1800 nM
TGI [49]: 3370 nM
GI50 [50]: 1810 nM
TGI [50]: 3290 nM
GI50 [51]: 1840 nM
TGI [51]: 3310 nM
GI50 [52]: 1960 nM
TGI [52]: 3880 nM
GI50 [53]: 2110 nM
TGI [53]: 4040 nM
GI50 [54]: 1780 nM
TGI [54]: 3260 nM
GI50 [55]: 1650 nM
TGI [55]: 3110 nM
GI50 [56]: 1640 nM
TGI [56]: 3330 nM
GI50 [57]: 1590 nM
TGI [57]: 2990 nM
